Test results: patent publication US20260207560A1, “PLURALITY OF GRANULES” (priority 2022, published 2026)
In brackets after ≈: the same amount, converted by molar mass. Several values for one entry are separate records, joined by “and”; a condition that tells them apart may be missing. Equal values may be shown once.

Tests used:
[1] = Compatibility of active ingredient with HPMC and gelatin capsule shells (assay, related substances); type: physicochemical; details: for Assay (%): single vials
Experimental: Binary mixtures of the active ingredient with the capsules shells were made as follows: • An active ingredient doping solution (active ingredient dissolved in ethanol) was made ([…]). A 100 μL aliquot of this doping was used to ‘spike’ the 10 vials of each capsule shell type as described in Table 5. The nominal quantity of active ingredient per vial was therefore 50 μg. • No doping solution was added to the three control vials of the excipient. • The active vials were left open overnight to evaporate all the ethanol, before closing the vials. • Both the active and placebo control vials were placed on stability for up to 28 days at 25° C. and 50° C.

[2] = Solubility of active ingredient in volatile solvents (visual); details: for solubility: thermodynamic from solid, Solubility of the active ingredient; for solubility / Solubility of the active ingredient: visual; for Solubility of the active ingredient: listed as active ingredient
Experimental: The active ingredient was dissolved in different solvents and the stability of the solution was assessed after being held overnight at ambient temperature. The following solvents were studied: ethanol, 50:50 EtOH:Water, 0.1 M HCl, pH 3 citric acid buffer, 5% SLS aq. and 5% Tween 80 aq.
This study involved assessing the solubility and the chemical stability of the active ingredient in different volatile solvents for use in wet granulation. The solubility was measured visually after mixing (by the disappearance of undissolved solids). Increasing quantities of each solvent were added as detailed above.

[3] = HPMC capsule shell, 50° C., 14 days, listed as active ingredient
[4] = HPMC capsule shell, 50° C., 28 days
[5] = HPMC capsule shell, 50° C., 28 days, listed as active ingredient
[6] = HPMC capsule shell, initial, listed as active ingredient
[7] = Hard Gelatin capsule shell, 25° C., 14 days, listed as active ingredient
[8] = Hard Gelatin capsule shell, 25° C., 28 days, listed as active ingredient
[9] = Hard Gelatin capsule shell, 50° C., 14 days
[10] = Hard Gelatin capsule shell, 50° C., 14 days, listed as active ingredient
[11] = Hard Gelatin capsule shell, 50° C., 28 days
[12] = Hard Gelatin capsule shell, 50° C., 28 days, listed as active ingredient
[13] = Hard Gelatin capsule shell, initial
[14] = Hard Gelatin capsule shell, initial, listed as active ingredient

For `CCS(=O)(=O)Nc1ccc2c(c1)nc(C(C)(C)C)n2CC1CCC(F)(F)CC1` [Compound I, N-(2-(tert-butyl)-1-((4,4-difluorocyclohexyl)methyl)-1H-benzimidazol-5-yl)ethanesulfonamide], which “Related substance RRT 1.35” value [1, 3] is on record?
Its value is 0.13% and 0.12%.

And the Related substances total [1, 3]?
Its Related substances total is 0.79% and 1.37%.

And the “Assay (%)” value [1, 3]?
Its value is 98.9% and 98.7%.

And the “Assay (%), mean” value [1, 4]?
Its value is 98.9%.

What about the “Related substance RRT 0.92” value [1, 4] of the same compound?
Its value is 0.07%.

And the “Related substance RRT 1.35” value [1, 4]?
Its value is 0.12%.

What about the “Related substance RRT 0.98” value [1, 5] of the same compound?
Its value is 0.31% and 0.32%.

And the “Related substance RRT 1.04” value [1, 5]?
The value was 0.07% and 0.09%.

And the “Related substance RRT 1.10” value [1, 5]?
The value was 0.09% and 0.10%.

What about the “Related substance RRT 1.36” value [1, 5] of the same compound?
The value was 0.12% and 0.13%.

And the Related substances total [1, 5]?
Its Related substances total is 0.79% and 0.83%.

And the “Assay (%)” value [1, 5]?
Its value is 98.8% and 98.9%.

And the “Assay (%), mean” value ([1]; HPMC capsule shell, initial)?
The value was 97.8%.

And the “Related substance RRT 1.04” value ([1]; HPMC capsule shell, initial)?
Its value is 0.07%.

What about the “Related substance RRT 1.35” value ([1]; HPMC capsule shell, initial) of the same compound?
Its value is 0.13%.

And the “Related substance RRT 1.36” value ([1]; HPMC capsule shell, initial)?
Its value is 0.13%.

And the “Related substance RRT 0.92” value [1, 6]?
The value was 0.08% and 0.07%.

What about the “Related substance RRT 0.98” value [1, 6] of the same compound?
Its value is 0.3% and 0.31%.

And the “Related substance RRT 1.10” value [1, 6]?
The value was 0.09% and 0.10%.

What about the Related substances total [1, 6] of the same compound?
The Related substances total was 0.81% and 0.82%.

And the “Assay (%)” value [1, 6]?
The value was 96.5% and 99.0%.

And the “Degradation of the active ingredient (from % assay)” value ([1]; HPMC or gelatin capsules, all conditions and timepoints)?
Its value is “no degradation”.

And the “Related substance RRT 1.35” value ([1]; Hard Gelatin capsule shell, 25° C., 14 days)?
Its value is 0.07%.

What about the “Related substance RRT 0.92” value [1, 7] of the same compound?
Its value is 0.05% and <0.05%.

And the “Related substance RRT 0.98” value [1, 7]?
Its value is 0.22% and 0.18%.

And the “Related substance RRT 1.04” value [1, 7]?
The value was 0.05% and <0.05%.

And the “Related substance RRT 1.10” value [1, 7]?
Its value is 0.10% and 0.09%.

What about the “Related substance RRT 1.36” value [1, 7] of the same compound?
The value was 0.07% and 0.08%.

What about the Related substances total [1, 7] of the same compound?
The Related substances total was 0.56% and 0.42%.

And the “Related substance RRT 1.04” value ([1]; Hard Gelatin capsule shell, 25° C., 28 days)?
The value was less than 0.05%.

And the “Related substance RRT 0.92” value [1, 8]?
The value was 0.05% and <0.05%.

And the “Related substance RRT 0.98” value [1, 8]?
The value was 0.18% and 0.14%.

And the “Related substance RRT 1.10” value [1, 8]?
The value was 0.08% and 0.09%.

What about the “Related substance RRT 1.35” value [1, 8] of the same compound?
Its value is 0.07% and 0.06%.

What about the “Related substance RRT 1.36” value [1, 8] of the same compound?
The value was 0.08% and 0.07%.

What about the Related substances total [1, 8] of the same compound?
Its Related substances total is 0.47% and 0.36%.

And the “Related substance RRT 0.92” value [1, 9]?
Its value is less than 0.05%.

What about the “Related substance RRT 1.04” value [1, 9] of the same compound?
Its value is less than 0.05%.

And the “Related substance RRT 1.10” value [1, 9]?
The value was 0.09%.

What about the “Related substance RRT 1.35” value [1, 9] of the same compound?
The value was 0.06%.

What about the “Related substance RRT 1.36” value [1, 9] of the same compound?
The value was 0.07%.

What about the “Related substance RRT 0.98” value [1, 10] of the same compound?
Its value is 0.14% and 0.12%.

And the Related substances total [1, 10]?
The Related substances total was 0.37% and 0.34%.

What about the “Related substance RRT 0.92” value [1, 11] of the same compound?
The value was less than 0.05%.

And the “Related substance RRT 1.04” value [1, 11]?
Its value is less than 0.05%.

What about the “Related substance RRT 1.35” value [1, 11] of the same compound?
Its value is 0.06%.

And the “Related substance RRT 1.36” value [1, 11]?
The value was 0.07%.

And the Related substances total [1, 11]?
The Related substances total was 0.33%.

What about the “Related substance RRT 0.98” value [1, 12] of the same compound?
Its value is 0.11% and 0.09%.

What about the “Related substance RRT 1.10” value [1, 12] of the same compound?
Its value is 0.09% and 0.11%.

What about the “Related substance RRT 1.04” value [1, 13] of the same compound?
The value was 0.05%.

What about the “Related substance RRT 1.10” value [1, 13] of the same compound?
The value was 0.10%.

And the “Related substance RRT 1.36” value [1, 13]?
The value was 0.08%.

What about the “Related substance RRT 0.92” value [1, 14] of the same compound?
The value was 0.06% and 0.05%.

What about the “Related substance RRT 0.98” value [1, 14] of the same compound?
The value was 0.26% and 0.24%.

And the “Related substance RRT 1.35” value [1, 14]?
The value was 0.08% and 0.07%.

What about the Related substances total [1, 14] of the same compound?
The Related substances total was 0.62% and 0.58%.

What about the Total impurities ([1]; both capsule types, all incubation times and temperatures) of the same compound?
Its Total impurities is “below 1%”.

What about the solubility ([2]; 0.1 M HCl, simulated gastric fluid) of the same compound?
Its solubility is 7000 µg/mL (≈ 16.9 mM).

What about the “Solubility of the active ingredient” value ([2]; 0.1 M HCl) of the same compound?
Its value is greater than 7000 µg/mL.

What about the Time to dissolve ([2]; 5% SLS aq., 0.6 mg/mL) of the same compound?
The Time to dissolve was 70 min.

And the “Time to dissolve (DND = did not dissolve)” value ([2]; 5% SLS aq., 3 mg/mL)?
The value was “DND”.

And the “Time to dissolve (DND = did not dissolve)” value ([2]; 5% SLS aq., 7 mg/mL)?
The value was “DND”.

And the solubility ([2]; 5% Tween 80 aq., aqueous with cosolvent or surfactant or cyclodextrin, 5% Tween 80)?
The solubility was less than 600 µg/mL.

What about the “Time to dissolve (DND = did not dissolve)” value ([2]; 5% Tween 80 aq., 0.6 mg/mL) of the same compound?
Its value is “DND”.

What about the “Time to dissolve (DND = did not dissolve)” value ([2]; 5% Tween 80 aq., 3 mg/mL) of the same compound?
The value was “DND”.

And the “Time to dissolve (DND = did not dissolve)” value ([2]; 5% Tween 80 aq., 7 mg/mL)?
The value was “DND”.

What about the solubility ([2]; 50:50 EtOH:water, aqueous with cosolvent or surfactant or cyclodextrin, 50:50 EtOH:water) of the same compound?
Its solubility is less than 600 µg/mL.

What about the “Time to dissolve (DND = did not dissolve)” value ([2]; 50:50 EtOH:water, 0.6 mg/mL) of the same compound?
The value was “DND”.

What about the “Time to dissolve (DND = did not dissolve)” value ([2]; 50:50 EtOH:water, 3 mg/mL) of the same compound?
The value was “DND”.

What about the “Time to dissolve (DND = did not dissolve)” value ([2]; 50:50 EtOH:water, 7 mg/mL) of the same compound?
The value was “DND”.

And the solubility ([2]; aqueous 5% SLS, aqueous with cosolvent or surfactant or cyclodextrin)?
The solubility was greater than 600 µg/mL.

What about the solubility ([2]; ethanol, organic solvent or mixture) of the same compound?
The solubility was 7000 µg/mL (≈ 16.9 mM).

And the “Solubility of the active ingredient” value ([2]; ethanol)?
The value was greater than 7000 µg/mL.

And the solubility ([2]; pH 3 citric acid buffer, pH 3, aqueous buffer, pH 3 citric buffer)?
Its solubility is greater than 600 µg/mL.

What about the Time to dissolve ([2]; pH 3 citric acid buffer, 0.6 mg/mL) of the same compound?
Its Time to dissolve is 180 min.

What about the “Time to dissolve (DND = did not dissolve)” value ([2]; pH 3 citric acid buffer, 3 mg/mL) of the same compound?
The value was “DND”.

What about the “Time to dissolve (DND = did not dissolve)” value ([2]; pH 3 citric acid buffer, 7 mg/mL) of the same compound?
Its value is “DND”.
